Measurements reported in US20250002455A1, “NEW N-PHENYLPYRROLAMIDE INHIBITORS OF DNA GYRASE AND TOPOISOMERASE IV WITH ANTIBACTERIAL ACTIVITY” (priority 2020, published 2025).
Converted amounts (≈) assume the structure as drawn. Where two headings read alike, the source gives them in different places.

Assays:
E. coli ATCC 25922 = experiment: Microbroth dilution MIC (CLSI); format: cell-based; settings: Escherichia coli, ATCC25922
Procedure, shortened: (§1)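 Two-fold dilution series prepared in 100% DMSO and tested by broth microdilution following CLSI M07-A8 or, for anaerobes, M11-A8. MIC taken as the lowest concentration without visible growth.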

E. faecium (ATCC 35667) = experiment: Microbroth dilution MIC (CLSI); format: cell-based; settings: Enterococcus faecium, ATCC35667
Procedure, shortened: as §1

[1] = tested on: K. pneumoniae (ATCC 700603); experiment: Microbroth dilution MIC (CLSI); format: cell-based; settings: Klebsiella pneumoniae, ATCC700603
Procedure, shortened: as §1

[2] = tested on: S. aureus ATCC 43300 (MRSA); experiment: Microbroth dilution MIC (CLSI); format: cell-based; settings: Staphylococcus aureus; S. aureus ATCC 43300 (MRSA); read-out: MIC
Procedure, shortened: as §1

P. aeruginosa ATCC 27853 = experiment: Microbroth dilution MIC (CLSI); format: cell-based; settings: Pseudomonas aeruginosa, ATCC27853
Procedure, shortened: as §1

A. baumannii ATCC 17978 = experiment: Microbroth dilution MIC (CLSI); format: cell-based; settings: Acinetobacter baumannii, ATCC17978; A. baumannii ATCC 17978; read-out: MIC
Procedure, shortened: as §1

S. aureus ATCC 29213 = experiment: Microbroth dilution MIC (CLSI); format: cell-based; settings: Staphylococcus aureus, ATCC29213
Procedure, shortened: as §1

[3] = tested on: E. spp. cloacae ATCC 13047; experiment: Microbroth dilution MIC (CLSI); format: cell-based; settings: Enterobacter cloacae, ATCC13047; E. spp. cloacae ATCC 13047; read-out: MIC
Procedure, shortened: as §1

K. pneumoniae ATCC 10031 = experiment: Microbroth dilution MIC (CLSI); format: cell-based; settings: Klebsiella pneumoniae, ATCC10031; K. pneumoniae ATCC 10031; read-out: MIC
Procedure, shortened: as §1

[4] = tested on: A. baumannii (ATCC 19606); experiment: Microbroth dilution MIC (CLSI); format: cell-based; settings: Acinetobacter baumannii, ATCC19606
Procedure, shortened: as §1

E. faecium ATCC 700221 = experiment: Microbroth dilution MIC (CLSI); format: cell-based; settings: Enterococcus faecium, ATCC700221; E. faecium ATCC 700221; read-out: MIC
Procedure, shortened: as §1

[5] = tested on: E. aerogenes (ATCC 13408); experiment: Microbroth dilution MIC (CLSI); format: cell-based, Enterobacter aerogenes; settings: Klebsiella aerogenes, ATCC13408
Procedure: The chemical entities described in the present invention were assessed for their antimicrobial activity using a microbroth dilution assay as recommended by the CLSI (Methods for Dilution Antimicrobial Susceptibility Tests for Bacteria That Grow Aerobically, and Methods for Antimicrobial Susceptibility Testing of Anaerobic Bacteria, Clinical and Laboratory Standards Institute, Document M07-A8, and M11-A8, Wayne, PA 19087, USA, 2012.). Compounds were dissolved by using 100% DMSO. Serial two-fold dilutions of each compound were made by using 100% DMSO as the diluent.
A library of Gram-negative and Gram-positive microbes and their drug- and multidrug-resistant variants were employed as test organisms. The MIC (minimum inhibitory concentration) was determined as the lowest concentration of an individual drug that lead to no visible growth.

[6] = biological target: T1, S. aureus topoisomerase IV (Staphylococcus aureus, UniProt P0C1S7); experiment: Topoisomerase IV inhibition assay (Inspiralis, streptavidin-coated plates); format: biochemical; settings: S. aureus topo IV; for IC50: read-out: IC50
T1 construct: purchased Inspiralis
T1 sequence (P0C1U9 whole entry): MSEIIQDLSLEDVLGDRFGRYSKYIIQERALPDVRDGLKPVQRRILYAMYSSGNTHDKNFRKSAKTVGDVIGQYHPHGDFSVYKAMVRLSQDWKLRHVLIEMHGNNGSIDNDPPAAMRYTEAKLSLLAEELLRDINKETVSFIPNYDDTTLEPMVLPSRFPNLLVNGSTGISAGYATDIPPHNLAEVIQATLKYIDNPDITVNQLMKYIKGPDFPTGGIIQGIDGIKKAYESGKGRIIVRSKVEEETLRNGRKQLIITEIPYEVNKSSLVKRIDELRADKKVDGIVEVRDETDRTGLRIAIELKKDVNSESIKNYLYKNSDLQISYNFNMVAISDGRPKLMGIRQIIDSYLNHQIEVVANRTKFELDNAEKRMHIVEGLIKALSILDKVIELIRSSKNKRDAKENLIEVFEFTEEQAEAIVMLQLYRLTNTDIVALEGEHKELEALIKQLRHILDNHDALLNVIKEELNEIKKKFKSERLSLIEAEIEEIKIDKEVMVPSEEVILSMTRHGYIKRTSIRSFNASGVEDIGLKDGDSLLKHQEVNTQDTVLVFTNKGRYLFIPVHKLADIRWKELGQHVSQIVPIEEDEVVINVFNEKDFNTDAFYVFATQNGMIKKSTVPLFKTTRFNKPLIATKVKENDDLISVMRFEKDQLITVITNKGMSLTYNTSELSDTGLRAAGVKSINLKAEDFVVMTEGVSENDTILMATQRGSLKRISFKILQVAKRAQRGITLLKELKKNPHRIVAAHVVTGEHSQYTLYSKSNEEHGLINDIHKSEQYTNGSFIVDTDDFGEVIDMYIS
T1 sequence (P0C1S7 whole entry): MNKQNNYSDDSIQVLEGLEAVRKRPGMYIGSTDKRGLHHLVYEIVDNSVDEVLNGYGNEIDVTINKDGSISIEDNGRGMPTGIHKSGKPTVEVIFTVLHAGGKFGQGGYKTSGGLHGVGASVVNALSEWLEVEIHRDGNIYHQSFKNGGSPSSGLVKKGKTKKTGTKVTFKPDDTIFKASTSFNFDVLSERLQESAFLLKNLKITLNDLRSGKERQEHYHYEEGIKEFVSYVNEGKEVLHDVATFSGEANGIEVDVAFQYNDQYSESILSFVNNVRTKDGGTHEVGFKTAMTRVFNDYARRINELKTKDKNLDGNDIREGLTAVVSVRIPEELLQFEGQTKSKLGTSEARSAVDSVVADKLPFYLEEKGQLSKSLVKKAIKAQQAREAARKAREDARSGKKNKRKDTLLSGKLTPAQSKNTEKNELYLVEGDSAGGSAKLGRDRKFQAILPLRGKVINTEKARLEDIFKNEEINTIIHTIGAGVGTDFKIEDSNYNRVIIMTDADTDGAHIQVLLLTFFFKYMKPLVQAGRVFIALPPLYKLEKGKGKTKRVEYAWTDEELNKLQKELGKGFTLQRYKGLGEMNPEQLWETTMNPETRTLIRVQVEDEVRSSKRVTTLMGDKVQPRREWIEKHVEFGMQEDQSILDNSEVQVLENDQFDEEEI
Procedure: Inhibitory activities for compounds of the present invention were determined on E. coli and S. aureus DNA gyrase and topoisomerase IV in an assay from Inspiralis on streptavidin-coated 96-well microtiter plates from Thermo scientific Pierce. […] After washing off the unbound oligonucleotide, the enzyme test was performed. […] Reaction solutions were incubated at 37° C. for 30 min. After that, the TF buffer (50 mM NaOAc with pH 5.0, 50 mM NaCl and 50 mM MgCl2) was added to terminate the enzymatic reaction. After additional incubation for 30 min at rt, during which biotin-oligonucleotide-plasmid triplex was formed, the unbound plasmid was washed off using TF buffer and SybrGOLD in T10 buffer (10 mM Tris HCl with pH 8.0 and 1 mM EDTA) was added. […] Initial screening was done at 100 or 10 nM concentration of inhibitors against E. coli DNA gyrase or 1 μM or 100 nM concentration against S. aureus DNA gyrase and E. coli and S. aureus topo IV. […] GraphPad Prism 6.0 software was used to calculate the IC50 values. The result is given as the average value of three independent measurements. […] Chemoth.

E. coli DNA gyrase = biological target: T2, E. coli DNA gyrase (Escherichia coli, UniProt P0AES6); experiment: biochemical; settings: for IC50: read-out: IC50
T2 construct: purchased Inspiralis
Procedure, shortened: (§2)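 Triplex-capture format: plasmid bound to a biotinylated oligonucleotide on streptavidin plates after reaction at 37 °C for 30 min. The reaction was stopped with TF buffer (50 mM NaOAc pH 5.0, 50 mM NaCl, 50 mM MgCl2), and captured DNA was stained with SybrGOLD. IC50 values are the mean of three independent measurements.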

E. coli topoisomerase IV = biological target: T3, E. coli topoisomerase IV (Escherichia coli, UniProt P20083); experiment: biochemical
T3 construct: purchased Inspiralis
T3 sequence (P0AFI2 whole entry): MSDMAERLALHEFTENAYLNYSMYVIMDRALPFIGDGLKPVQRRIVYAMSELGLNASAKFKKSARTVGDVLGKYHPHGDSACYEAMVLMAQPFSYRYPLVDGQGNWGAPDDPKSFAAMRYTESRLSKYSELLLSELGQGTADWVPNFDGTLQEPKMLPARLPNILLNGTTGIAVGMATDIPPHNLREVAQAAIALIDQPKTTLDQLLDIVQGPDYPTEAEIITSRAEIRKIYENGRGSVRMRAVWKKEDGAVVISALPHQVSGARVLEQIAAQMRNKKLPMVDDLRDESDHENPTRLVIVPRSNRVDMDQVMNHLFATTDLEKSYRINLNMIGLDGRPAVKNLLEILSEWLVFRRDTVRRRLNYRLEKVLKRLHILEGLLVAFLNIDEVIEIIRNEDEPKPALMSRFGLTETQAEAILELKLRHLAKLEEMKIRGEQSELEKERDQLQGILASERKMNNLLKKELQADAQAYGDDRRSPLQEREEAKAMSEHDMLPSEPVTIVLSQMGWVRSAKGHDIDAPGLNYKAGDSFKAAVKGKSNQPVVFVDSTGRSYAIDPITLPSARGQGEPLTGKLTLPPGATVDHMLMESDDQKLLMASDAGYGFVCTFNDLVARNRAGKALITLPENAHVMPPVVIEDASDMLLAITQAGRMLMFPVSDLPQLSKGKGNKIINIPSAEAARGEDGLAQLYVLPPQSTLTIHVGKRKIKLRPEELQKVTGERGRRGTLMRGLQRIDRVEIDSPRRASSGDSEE
T3 sequence (P20083 whole entry): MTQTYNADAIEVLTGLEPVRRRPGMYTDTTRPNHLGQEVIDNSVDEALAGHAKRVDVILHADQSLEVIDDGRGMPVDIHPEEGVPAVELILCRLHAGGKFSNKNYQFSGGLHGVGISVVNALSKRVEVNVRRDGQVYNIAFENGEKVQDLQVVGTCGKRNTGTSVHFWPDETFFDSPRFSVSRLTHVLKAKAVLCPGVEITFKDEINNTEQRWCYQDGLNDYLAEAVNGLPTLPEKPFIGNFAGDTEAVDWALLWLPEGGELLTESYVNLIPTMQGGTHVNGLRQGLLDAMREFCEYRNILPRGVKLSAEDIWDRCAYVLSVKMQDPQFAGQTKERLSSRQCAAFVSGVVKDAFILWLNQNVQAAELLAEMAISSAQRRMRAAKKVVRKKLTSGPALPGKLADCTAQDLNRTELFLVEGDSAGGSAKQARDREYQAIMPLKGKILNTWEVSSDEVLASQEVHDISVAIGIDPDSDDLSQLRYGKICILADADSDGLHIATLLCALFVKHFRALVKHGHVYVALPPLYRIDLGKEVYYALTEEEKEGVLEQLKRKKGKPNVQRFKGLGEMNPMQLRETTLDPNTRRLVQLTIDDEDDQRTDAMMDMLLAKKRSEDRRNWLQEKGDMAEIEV
Procedure, shortened: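 Supercoiling/relaxation read via biotin-oligonucleotide triplex capture on streptavidin plates; reactions 30 min at 37° C, stopped with TF buffer pH 5.0, plasmid stained with SybrGOLD.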

E. faecalis ATCC 29212 = experiment: Microbroth dilution MIC (CLSI); format: cell-based; settings: Enterococcus faecalis, ATCC29212; E. faecalis ATCC 29212; read-out: MIC
Procedure, shortened: as §1

[7] = biological target: DNA gyrase from Mycobacterium tuberculosis (Mycobacterium tuberculosis, UniProt P9WG45); experiment: Gel-based supercoiling assay; format: biochemical; settings: M. tuberculosis DNA gyrase
Description: Example compound 18 was additionally evaluated against DNA gyrase from Mycobacterium tuberculosis using a gel-based supercoiling assay.

S. aureus DNA gyrase = biological target: T4, S. aureus DNA gyrase (Staphylococcus aureus, UniProt P0A0K8); experiment: biochemical
T4 construct: purchased Inspiralis
T4 sequence (P20831 whole entry): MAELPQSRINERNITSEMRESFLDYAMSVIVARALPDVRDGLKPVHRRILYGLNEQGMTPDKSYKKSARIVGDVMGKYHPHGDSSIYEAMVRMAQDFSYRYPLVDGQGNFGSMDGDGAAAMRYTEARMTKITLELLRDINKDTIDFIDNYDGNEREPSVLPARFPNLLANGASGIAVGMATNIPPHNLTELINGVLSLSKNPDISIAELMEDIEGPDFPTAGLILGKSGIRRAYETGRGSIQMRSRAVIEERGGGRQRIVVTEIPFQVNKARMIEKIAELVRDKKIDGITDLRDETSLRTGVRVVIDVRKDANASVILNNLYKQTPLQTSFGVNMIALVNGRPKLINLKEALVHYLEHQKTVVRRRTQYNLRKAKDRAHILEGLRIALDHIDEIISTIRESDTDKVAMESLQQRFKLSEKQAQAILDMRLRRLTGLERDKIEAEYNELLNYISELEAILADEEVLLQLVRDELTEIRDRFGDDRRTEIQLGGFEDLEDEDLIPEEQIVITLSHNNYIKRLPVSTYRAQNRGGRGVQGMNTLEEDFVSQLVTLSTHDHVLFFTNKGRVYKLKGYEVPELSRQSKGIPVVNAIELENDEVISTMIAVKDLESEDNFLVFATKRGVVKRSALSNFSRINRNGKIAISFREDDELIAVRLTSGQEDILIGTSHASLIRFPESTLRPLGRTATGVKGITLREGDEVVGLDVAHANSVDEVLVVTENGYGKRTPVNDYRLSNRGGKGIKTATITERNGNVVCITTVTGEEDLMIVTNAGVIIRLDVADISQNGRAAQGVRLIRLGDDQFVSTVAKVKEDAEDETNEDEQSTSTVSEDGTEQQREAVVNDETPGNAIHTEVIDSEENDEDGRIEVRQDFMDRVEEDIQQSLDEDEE
T4 sequence (P0A0K8 whole entry): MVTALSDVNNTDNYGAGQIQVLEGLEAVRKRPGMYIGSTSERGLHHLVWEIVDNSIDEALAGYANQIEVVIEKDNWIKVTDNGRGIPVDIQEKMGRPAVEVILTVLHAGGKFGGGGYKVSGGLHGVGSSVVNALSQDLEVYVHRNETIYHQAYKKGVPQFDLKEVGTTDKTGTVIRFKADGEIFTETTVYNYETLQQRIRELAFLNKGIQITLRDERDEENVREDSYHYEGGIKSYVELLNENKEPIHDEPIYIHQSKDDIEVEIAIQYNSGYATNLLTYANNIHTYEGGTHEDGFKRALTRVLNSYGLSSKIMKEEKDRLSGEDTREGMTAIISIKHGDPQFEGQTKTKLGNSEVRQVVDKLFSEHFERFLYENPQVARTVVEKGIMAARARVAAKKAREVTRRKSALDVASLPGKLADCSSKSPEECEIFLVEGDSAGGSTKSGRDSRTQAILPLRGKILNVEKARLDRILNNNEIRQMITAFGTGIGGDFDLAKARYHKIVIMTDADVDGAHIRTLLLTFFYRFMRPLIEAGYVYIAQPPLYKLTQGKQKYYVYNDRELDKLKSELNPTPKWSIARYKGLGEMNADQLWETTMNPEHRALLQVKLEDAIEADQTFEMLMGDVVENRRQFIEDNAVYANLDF
Procedure, shortened: as §2

[8] = E. coli ATCC 25922, read-out: MIC
[9] = P. aeruginosa ATCC 27853, read-out: MIC
[10] = S. aureus ATCC 29213, read-out: MIC

`Cc1[nH]c(C(=O)Nc2ccc(-c3nnn[nH]3)cc2N2CCOCC2)c(Cl)c1Cl` [Example 10, 3,4-Dichloro-5-methyl-N-(2-morpholino-4-(2H-tetrazol-5-yl)phenyl)-1H-pyrrole-2-carboxamide] showed an MIC (E. coli ATCC 25922; [8]) of no less than 64 µg/mL, an MIC (E. faecium (ATCC 35667); E. faecium (ATCC 35667), read-out: MIC) of 10 µg/mL (≈ 23.7 µM) and an MIC ([1]; K. pneumoniae (ATCC 700603), read-out: MIC) of no less than 64 µg/mL. For the same compound, the MIC [2] was no less than 64 µg/mL, the MIC (P. aeruginosa ATCC 27853; [9]) was no less than 64 µg/mL and the MIC (A. baumannii ATCC 17978) was no less than 64 µg/mL. The MIC (S. aureus ATCC 29213; [10]) was no less than 64 µg/mL, the MIC [3] was no less than 64 µg/mL and the MIC (K. pneumoniae ATCC 10031) was no less than 64 µg/mL. The MIC ([4]; A. baumannii (ATCC 19606), read-out: MIC) was no less than 64 µg/mL, the MIC (E. faecium ATCC 700221) was no less than 64 µg/mL and the MIC ([5]; E. aerogenes (ATCC 13408), read-out: MIC) was no less than 64 µg/mL. For the same compound, the remaining activity at 0.1 µM ([6]; 0.1 μM compound, read-out: RA (residual activity of the enzyme)) was 101%, the remaining activity at 1 µM ([6]; 1 μM compound, read-out: RA (residual activity of the enzyme)) was 7% and the IC50 (E. coli DNA gyrase; E. coli DNA gyrase) was 44.5 nM.

For `Cc1[nH]c(C(=O)Nc2ccc(C(=O)O)cc2N2CCNCC2)c(Cl)c1Cl` [Example 12, 4-(5-Carboxy-2-(3,4-dichloro-5-methyl-1H-pyrrole-2-carboxamido)phenyl)piperazin-1-ium chloride], the MIC (E. coli ATCC 25922; [8]) was no less than 64 µg/mL, the MIC (E. faecium (ATCC 35667)) was no less than 64 µg/mL and the MIC [1] was no less than 64 µg/mL. The MIC (P. aeruginosa ATCC 27853; [9]) was no less than 64 µg/mL, the MIC (S. aureus ATCC 29213; [10]) was no less than 64 µg/mL and the MIC [4] was no less than 64 µg/mL. The MIC [5] was no less than 64 µg/mL, the remaining activity at 10 µM (E. coli topoisomerase IV; E. coli topo IV, 10 μM compound, read-out: RA (residual activity of the enzyme)) was -18% and the remaining activity at 10 µM ([6]; 10 μM compound, read-out: RA (residual activity of the enzyme)) was -17%. The remaining activity at 1 µM (E. coli DNA gyrase; E. coli DNA gyrase, 1 μM compound, read-out: RA (residual activity of the enzyme)) was 67%.

`Cc1[nH]c(C(=O)Nc2ccc(-c3n[nH]c(=O)o3)cc2N2CCC[C@H](N)C2)c(Cl)c1Cl.Cl` [Example 18, (S)-1-(2-(3,4-Dichloro-5-methyl-1H-pyrrole-2-carboxamido)-5-(5-oxo-4,5-dihydro-1,3,4-oxadiazol-2-yl)phenyl)piperidin-3-aminium chloride] showed an MIC (E. coli ATCC 25922; [8]) of 16 µg/mL, an MIC [2] of 4 µg/mL and an MIC (P. aeruginosa ATCC 27853; [9]) of 64 µg/mL. For the same compound, the MIC (A. baumannii ATCC 17978) was 16 µg/mL, the MIC (S. aureus ATCC 29213; [10]) was 2 µg/mL and the MIC [3] was greater than 64 µg/mL. It also gave an MIC (E. faecalis ATCC 29212) of 2 µg/mL, an MIC (K. pneumoniae ATCC 10031) of 0.25 µg/mL and an IC50 [7] of 26.5 ± 2.1 nM. For the same compound, the IC50 [6] was 406 nM, the IC50 (E. coli DNA gyrase; E. coli DNA gyrase) was 27.2 nM and the remaining activity at 0.1 µM (S. aureus DNA gyrase; S. aureus DNA gyrase, 0.1 μM compound, read-out: RA (residual activity of the enzyme)) was 41%. The remaining activity at 1 µM (S. aureus DNA gyrase; S. aureus DNA gyrase, 1 μM compound, read-out: RA (residual activity of the enzyme)) was 11%.

Compound `Cc1[nH]c(C(=O)Nc2ccc(C(=O)NCC(=O)O)cc2N2CC[C@@H](N)C2)c(Cl)c1Cl` [Example 34, (R)-1-(5-((Carboxymethyl)carbamoyl)-2-(3,4-dichloro-5-methyl-1H-pyrrole-2-carboxamido)phenyl)pyrrolidin-3-aminium chloride] has an MIC (E. coli ATCC 25922) of no less than 64 µg/mL, an MIC (E. faecium (ATCC 35667)) of no less than 64 µg/mL and an MIC [1] of no less than 64 µg/mL. It also gave an MIC (P. aeruginosa ATCC 27853) of no less than 64 µg/mL, an MIC (S. aureus ATCC 29213) of no less than 64 µg/mL and an MIC [4] of no less than 64 µg/mL. For the same compound, the MIC [5] was no less than 64 µg/mL, the IC50 (E. coli topoisomerase IV; read-out: IC50) was 2370 nM and the IC50 [6] was 2030 nM. For the same compound, the IC50 (E. coli DNA gyrase) was 21.3 nM and the IC50 (S. aureus DNA gyrase; read-out: IC50) was 1240 nM.
